Reference: patent publication US20190142721A1, “COMPOSITION CONTAINING SUBSTANCE FOR REGULATING EXPRESSON OF ABH ANTIGENS” (AMOREPACIFIC CORPORATION, priority 2014, published 2019)

Experiments:
PGE-2 = assay: Decrease in expression of skin inflammatory factor PGE-2 in UVB-exposed keratinocytes (ELISA); format: cell-based, human; settings: 2 μg/ml, 16 hours, keratinocytes after UVB exposure
Method: In order to measure the effect of suppressing the expression of PGE-2 which is a skin inflammatory factor of 1,3-dicaffeoylquinic acid, 1,5-dicaffeoylquinic acid and amentoflavone of the present invention, ELISA (Enzyme Linked ImmunoSorbent Assay) was performed (S E Dunsmore, et al., J Biol Chem, 271: 24576-24582, 1996).
5×10^4 cells of keratinocytes isolated from human epidermal tissue were put in each well of a 24-well plate and immobilized for 24 hours. The culture medium was replaced with a medium not containing FBS and treated with aspirin to remove the activity of prostaglandin biosynthetic enzyme (prostaglandin H2 synthetase, or cyclooxygenase). Two hours after aspirin treatment, each well containing keratinocytes was washed twice with PBS to which 100 μl of PBS was added to each well. The keratinocytes were exposed to […] of ultraviolet radiation under an ultraviolet B (UV B) lamp (Model: F15T8, UV B15W, Sankyo Dennki, Japan). Each well was removed of PBS and supplied with 250 ul of the keratinocyte growth media (Clonetics BioWhittacker, MD, USA).
Here, the substances 1,3-dicaffeoylquinic acid, 1,5-dicaffeoylquinic acid and amentoflavone were treated at a dose of 2 μg/ml, followed by culturing for 16 hours. By taking an appropriate amount of culture supernatant and quantifying PGE-2 biosynthesized for 16 hours, the prostaglandin inhibitory effects of 1,3-dicaffeoylquinic acid, 1,5-dicaffeoylquinic acid and amentoflavone was evaluated. The expression inhibitory effect of PGE-2 was calculated by the following mathematical formula 1, and the results are shown in Table 4 below.
Expression inhibition rate of PGE-2(%)=(A−B)/A*100 [Mathematical Formula 1]
A: Absorbance of well to which test substance was not added
B: Absorbance of the well to which test substance was added

B antigen (ABH antigen) = assay: Effect of increasing the expression of B antigen in HaCaT cell line (western blot); format: cell-based; settings: HaCaT cells, 2 μg/ml, 48 hours; for expression of B type antigen: western blot, FIG. 2; for expression of ABH antigen: data not shown
Method: The effect of various kinds of compounds on the expression of ABH antigen was examined. For this purpose, HaCaT cells (provided by Prof. Dr. N E Fusenig, DKFZ Heidelberg, Germany) were cultured in 10% FBS-DMEM for 24 hours in a 35 mm dish and then cultured in 0% FBS-DMEM for 24 hours to make to a starvation state.
Again, while replacing the medium with 0% FBS-DMEM, various kinds of compounds as test substances were treated with HaCaT cells at a concentration of 2 μg/ml, respectively, and cultured for 48 hours. At this time, for comparison, the control group was treated with DMSO at the same concentration as the sample. […] In case where these three compounds were treated, proteins were extracted from the cells, the cell lysate was loaded in the same amount, and then the expression of type B antigen was examined by western blot. Alpha-tubulin protein was used as a control group.

procollagen type(I) = assay: Promotion of collagen biosynthesis in fibroblasts (procollagen type(I) ELISA); format: cell-based; settings: 2 μg/ml, 24 hours, untreated group as 100
Method: The collagen biosynthesis promoting effect of 1,3-dicaffeoylquinic acid, 1,5-dicaffeoylquinic acid and amentoflavone used in the present invention was measured in comparison with TGF-β.
First, 1×10^5 cells of fibroblasts were seeded in each well of a 24-well plate and cultured until they grew to about 90%. This was cultured in a serum-free DMEM medium for 24 hours and then treated with 2 μg/ml of 1,3-dicaffeoylquinic acid, 1,5-dicaffeoylquinic acid, amentoflavone and TGF-β, respectively, and cultured for 24 hours in a CO2 incubator. These supernatant fluids were removed and the procollagen type(I) ELISA kit was used to observe whether procollagen was increased or decreased. The results are shown in Table 6, and the collagen synthesis ability was compared with the untreated group as 100.

[1] = system: reactive oxygen species (ROS); assay: Inhibition of formation of reactive oxygen species in UVB-exposed keratinocytes (DCF-DA fluorescence); format: cell-based, human; settings: 2 μg/ml; for ROS, ratio to the ROS of the control group, 0 hr: 0 hr after exposure to 30 mJ/cm^2 of UVB, UVB + untreated 100; for ROS, ratio to the ROS of the control group, 2 hrs: 2 hrs after exposure to 30 mJ/cm^2 of UVB, UVB + untreated 325, untreated 244; for ROS, ratio to the ROS of the control group, 3 hrs: 3 hrs after exposure to 30 mJ/cm^2 of UVB, UVB + untreated 381, untreated 287
Method: 5×10^4 cells of Keratinocytes isolated from the human epidermal tissue were put in each well of a 24-well plate and immobilized for 24 hours. After the culture medium was removed, 100 μl of phosphate buffered saline (PBS) solution was added to each well. The keratinocytes were exposed to 30 mJ/cm^2 of ultraviolet radiation under an ultraviolet B (UV B) lamp (Model: F15T8, UV B 15 W, Sankyo Denki Co., Ltd., Japan). Each well was removed of the PBS solution and then supplied with 200 μl1 of the keratinocyte culture medium. The well was treated with 2 μg/ml of 1,3-dicaffeoylquinic acid, 1,5-dicaffeoylquinic acid and amentoflavone as the test substances, respectively. Then, the quantity of the reactive oxygen species (ROS) increased by the UV stimulation was determined at defined time intervals. At this time, for comparison, the quantity of reactive oxygen species was also measured for those not treated with test substance (untreated) and not stimulated with ultraviolet rays and those subjected to ultraviolet stimulation without treatment of the test substance. The quantity of ROS was quantified by referring to Tan's method for measuring the fluorescence of dichlorofluorescin diacetate (DCF-DA) oxidized by ROS (Tan et al., 1998, J. Cell Biol. Vol. 141, pp 1423-1432).

skin pore size = assay: Effect of reducing skin pores in rhino mice; format: in vivo; settings: 0.5 ml of 1% solution applied to rhino mice for 1 week; control group (solvent) 65
Method: At this time, for comparison, only 0.5 ml of solvent was applied to one group. The substances were treated for 1 week and the back part was biopsied 24 hours after the last treatment. The epidermis was separated, immersed in 0.5% acetic acid, fixed in 10% formalin and cut vertically at […]. After staining with hematoxylin and eosin, the skin pore size was measured using a mechanical eyepiece micrometer.

5α-reductase = target: T1, 5α-reductase (Homo sapiens, UniProt P31213); assay: Inhibitory effect on 5α-reductase activity: conversion of [14C]testosterone to [14C]dihydrotestosterone in HEK 293-5α R2 cells; format: cell-based; settings: for Inhibition rate (%) / Conversion rate (%): 2 μg/ml, 2 hours, HEK 293-5α R2 cells; for Inhibition rate (%): relative to conversion rate of control group; for Conversion rate (%): radioactivity at DHT region/total radioactivity, control group 48
T1 construct: 3×FLAG; expressed in transfected cells; host or cells: HEK 293
T1 sequence (P31213 1-254): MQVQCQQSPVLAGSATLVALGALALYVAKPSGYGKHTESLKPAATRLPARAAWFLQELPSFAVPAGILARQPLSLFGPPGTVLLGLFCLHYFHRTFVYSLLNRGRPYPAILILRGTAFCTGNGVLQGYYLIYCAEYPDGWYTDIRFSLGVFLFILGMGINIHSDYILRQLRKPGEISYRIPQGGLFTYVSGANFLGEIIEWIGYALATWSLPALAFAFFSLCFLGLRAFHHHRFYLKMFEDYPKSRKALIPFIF
Method: In order to evaluate the inhibitory effect on the activity of 5α-reductase, the conversion rate from [^14C] testosterone to [^14C] dihydrotestosterone in HEK 293-5α R2 cells was measured. HEK 293 cells were transfected with p3×FLAG-CMV-5α R2, and the transfected HEK 293 cells (HEK 293-5α R2 cells) were seeded in a 24-well plate, 2.5×10^5 cells per well (Park et al., 2003, JDS. Vol. 31, pp 191-98). The next day, the used culture medium was replaced with a new culture medium containing an enzyme substrate and an inhibitor. The substrate of the culture medium used was 0.05 μCi [^14C]testosterone (Amersham Pharmacia Biotech, UK). […] At this time, for comparison, the negative control used was the group not containing any of the above test substances, while the positive control used was the group in which finasteride was added to the medium at 2 μg/ml and cultured under the same conditions. Subsequently, the culture medium was collected to extract estosterone with 800 μl of ethylacetate. The supernatant organic solvent phase was isolated and dried. The residue was dissolved in 50 μl of ethylacetate and developed on silica plastic sheet kieselgel 60 F254 using an ethylacetate-hexane (1:1) as a developing solvent. The plastic sheet was dried out in the air and measured in regards to the abundance of isotope using a BAS system. The dry plastic sheet together with an X-ray film was put in a bath cassette. After one week, the amount of isotope of testosterone and dihydrotestosterone remaining on the film was measured.

Row | Structure (SMILES) | PGE-2 expression inhibition rate(%) (PGE-2) | expression of B type antigen (B antigen (ABH antigen)) | expression of ABH antigen (B antigen (ABH antigen)) | Collagen synthesis ability (%) (procollagen type(I)) | ROS, ratio to the ROS of the control group, 0 hr [1] | ROS, ratio to the ROS of the control group, 2 hrs [1] | ROS, ratio to the ROS of the control group, 3 hrs [1] | Skin Pore size (µm) (skin pore size) | Inhibition rate (%) (5α-reductase) | Conversion rate (%) (5α-reductase) | inhibition at 2 µg/mL (5α-reductase; HEK2935, read-out: Inhibition rate (%))
1 | O=C(/C=C/c1ccc(O)c(O)c1)OC1CC(OC(=O)/C=C/c2ccc(O)c(O)c2)(C(=O)O)CC(O)C1O (centres unmarked) [1,3-dicaffeoylquinic acid] | 28.1% | increasing the expression of B type antigen | significantly increase the expression of ABH antigen | 142.1 ± 13.1% | 100 | 277 | 319 | 53 µm | 38% | 30% | 
2 | O=C(/C=C/c1ccc(O)c(O)c1)O[C@@H]1C[C@](OC(=O)/C=C/c2ccc(O)c(O)c2)(C(=O)O)C[C@@H](O)[C@H]1O [1,5-dicaffeoylquinic acid] | 32.5% | increasing the expression of B type antigen | significantly increase the expression of ABH antigen | 144.2 ± 11.0% | 100 | 280 | 315 | 54 µm | 38% | 30% | 
3 | O=C(O[C@@H]1Cc2c(O)cc(O)cc2O[C@@H]1c1cc(O)c(O)c(O)c1)c1cc(O)c(O)c(O)c1 [EGCG, reference compound] |  |  |  |  |  |  |  | 60 µm |  |  | 
4 | CC(C)(C)NC(=O)[C@H]1CC[C@H]2[C@@H]3CC[C@H]4NC(=O)C=C[C@]4(C)[C@H]3CC[C@]12C [Finasteride, finasteride, reference compound] |  |  |  |  |  |  |  |  |  | 27% | 
5 | O=c1cc(-c2ccc(O)c(-c3c(O)cc(O)c4c(=O)cc(-c5ccc(O)cc5)oc34)c2)oc2cc(O)cc(O)c12 [amentoflavone] | 30.9% | increasing the expression of B type antigen | significantly increase the expression of ABH antigen | 147.7 ± 15.8% | 100 | 288 | 320 | 50 µm |  | 32% | 33%
